Assay results from patent US20130090327A1, “Inhibitors of Protein Tyrosine Kinase Activity” (METHYLGENE INC., priority 2011, published 2013).
Several values for one entry are separate records, joined by “and”; a condition that tells them apart may be missing. Identical values can stand only once.

How the values were obtained:
[1] = tested on: choroidal neovascularization (CNV); experiment: In Vivo Choroidal Neovascularization (CNV) Model; parameters: species or system Brown-Norway rats; details: for CNV area, average: group average, Day 10, rat; for CNV area, individual animal: injection on Day 3, measured Day 10, rat; for CNV area % of control / inhibition (CNV area): versus vehicle group, rat
From the text: In Vivo Choroidal Neovascularization (CNV) Model
This test measures the capacity of compounds to inhibit CNV progression. CNV is the main cause of severe vision loss in patients suffering from age-related macular degeneration (AMD).
Male Brown-Norway rats (Charles River Japan Co., Ltd.) were used in these studies.
Rats were anesthetized by intraperitoneal injection of pentobarbital, and the right pupil was dilated with 0.5% tropicamide and 0.5% phenylephrine hydrochloride. The right eye received 6 laser burns between retinal vessels using a slit lamp delivery system of Green laser Photocoagulator (Nidex Inc., Japan), and microscope slide glass with 10 mg/mL hyaluronic acid (SIGMA) used as a contact lens. The laser power was 200 mW for 0.1 second and spot diameter was 100 μm. At the time of laser burn, bubble production was observed; which is an indication of rupture of Bruch's membrane which is important for CNV generation.
After animals were anesthetized, and the right pupil dilated (as mentioned above), the right eye of the animal received the compound or vehicle by an injection (3 μL/eye) at doses of 0.3 to 30 nmol/eye on Day 3. The compounds were dissolved or suspended in CBS, PBS, or other adequate vehicles before injection.
On Day 10, the animals were anesthetized with ether, and high molecular weight fluorescein isothiocyanate (FITC)-dextran (SIGMA, 2×106 MW) was injected via a tail vein (20 mg/rat). About 30 min after FITC-dextran injection, animals were euthanized by ether or carbon dioxide, and the eyes were removed and fixed with 10% formaline neutral buffer solution. After over 1 hour of fixation, RPE-choroid-sclera flat mounts were obtained by removing comea, lens and retina from the eyeballs. The flat mounts were mounted in 50% glycerol on a microscope slide, and the portion burned by laser was photographed using a fluorescence microscope (Nikon Corporation, excitation filter: 465-495 nm, absorption filter: 515-555 nm). The CNV area was obtained by measurement of hyper-fluorescence area observed on the photograph using Scion image.
The average CNV area of 6 burns was used as an individual value of CNV area, and the average CNV area of compound treated group was compared with that of the vehicle-treated group.

VEGFR2 (KDR) = biological target: T1, VEGFR2 (KDR) (Homo sapiens, UniProt P35968); experiment: In Vitro Receptor Tyrosine Kinase Assay (VEGF Receptor KDR); format: biochemical; details: recombinant GST-VEGFR2 806-1356, DELFIA assay, ATP 0.6 uM, enzyme 5 nM; read-out: VEGFR_IC50_UM
T1 construct: made in house; host or cells: Sf9 cells (Spodoptera frugiperda), baculovirus (Bac-to-Bac)
From the text: In Vitro Receptor Tyrosine Kinase Assay (VEGF Receptor KDR)
This test measures the ability of compounds to inhibit the enzymatic activity of recombinant human VEGF receptor enzymatic activity.
A 1.6-kb cDNA corresponding to the catalytic domain of VEGFR2 (KDR) (Genbank accession number AF035121 amino acid 806 to 1356) is cloned into the Pst I site of the pDEST20 Gateway vector (Invitrogen) for the production of a GST-tagged version of that enzyme. This construct is used to generate recombinant baculovirus using the Bac-to-Bac™ system according to the manufacturer's instructions (Invitrogen).
The GST-VEGFR2806-1356 protein is expressed in Sf9 cells (Spodoptera frugiperda) upon infection with recombinant baculovirus construct. Briefly, Sf9 cells grown in suspension and maintained in serum-free medium (Sf900 II supplemented with gentamycin) at a cell density of about 2×10^6 cells/ml are infected with the above-mentioned viruses at a multiplicity of infection (MOI) of 0.1 during 72 hours at 27° C. with agitation at 120 rpm on a rotary shaker. Infected cells are harvested by centrifugation at 398 g for 15 min. Cell pellets are frozen at […] until purification is performed.
All steps described in cell extraction and purification are performed at 4° C. Frozen Sf9 cell pellets infected with the GST-VEGFR2806-1356 recombinant baculovirus are thawed and gently resuspended in Buffer A (PBS pH 7.3 supplemented with 1 μg/ml pepstatin, 2 μg/ml Aprotinin and leupeptin, 50 μg/ml PMSF, 50 μg/ml TLCK and 10 μM E64 and 0.5 mM DTT) using 3 ml of buffer per gram of cells. Suspension is Dounce homogenized and 1% Triton X-100 is added to the homogenate after which it is centrifuged at 22500 g, 30 min., 4° C. The supernatant (cell extract) is used as starting material for purification of GST-VEGFR2806-1356.
The supernatant is loaded onto a GST-agarose column (Sigma) equilibrated with PBS pH 7.3. Following a four column volume (CV) wash with PBS pH 7.3+1% Triton X-100 and 4 CV wash with buffer B (50 mM Tris pH 8.0, 20% glycerol and 100 mM NaCl), bound proteins are step eluted with 5 CV of buffer B supplemented with 5 mM DTT and 15 mM glutathion. GST-VEGFR2806-1356 enriched fractions from this chromatography step are pooled based on U.V. trace i.e. fractions with high O.D.280. Final GST-VEGFR2806-1356 protein preparations concentrations are about 0.7 mg/ml with purity approximating 70%. Purified GST-VEGFR2806-1356 protein stocks are aliquoted and frozen at −80° C. prior to use in enzymatic assay.
Inhibition of VEGFR/KDR is measured in a DELFIA™ assay (Perkin Elmer). The substrate poly(Glu4,Tyr) is immobilized onto black high-binding polystyrene 96-well plates. The coated plates are washed and stored at 4° C. During the assay, the enzyme is pre-incubated with inhibitor and Mg-ATP on ice in polypropylene 96-well plates for 4 minutes, and then transferred to the coated plates. The subsequent kinase reaction takes place at 30° C. for 10-minutes. ATP concentrations in the assay are 0.6 uM for VEGFR/KDR (2× the Km). Enzyme concentration is 5 nM. After incubation, the kinase reactions are quenched with EDTA and the plates are washed. Phosphorylated product is detected by incubation with Europium-labeled anti-phosphotyrosine MoAb. After washing the plates, bound MoAb is detected by time-resolved fluorescence in a Gemini SpectraMax reader (Molecular Devices). Compounds are evaluated over a range of concentrations, and IC50 values (concentration of compounds giving 50% inhibition of enzymatic activity) are determined.

T1 sequence (P35968 806-1356): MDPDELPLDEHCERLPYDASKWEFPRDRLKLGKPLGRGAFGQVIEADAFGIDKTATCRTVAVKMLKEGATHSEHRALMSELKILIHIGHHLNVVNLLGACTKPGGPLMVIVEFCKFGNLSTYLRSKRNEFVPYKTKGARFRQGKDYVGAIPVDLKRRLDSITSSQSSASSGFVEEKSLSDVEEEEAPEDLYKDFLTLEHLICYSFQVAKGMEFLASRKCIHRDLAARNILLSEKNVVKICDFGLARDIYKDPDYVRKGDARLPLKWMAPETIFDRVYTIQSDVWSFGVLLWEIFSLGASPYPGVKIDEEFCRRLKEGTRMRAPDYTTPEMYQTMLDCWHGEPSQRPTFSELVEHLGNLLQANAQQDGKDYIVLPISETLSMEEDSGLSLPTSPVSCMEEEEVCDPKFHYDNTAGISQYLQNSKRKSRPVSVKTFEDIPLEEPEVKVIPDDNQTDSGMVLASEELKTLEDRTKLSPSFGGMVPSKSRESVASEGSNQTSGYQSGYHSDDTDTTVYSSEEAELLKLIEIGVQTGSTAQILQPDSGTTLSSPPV

## COCCN(Cc1ccc(-c2cc3nccc(Oc4ccc(Nc5nc6cc(Cl)ccc6[nH]5)cc4F)c3s2)nc1)C(C)=O [Compound 64]
[1]; 0.3 nmol/eye
  CNV area, average: 0.085 mm^2
  CNV area, individual animal: 0.091 mm^2 and 0.094 mm^2 and 0.045 mm^2 and 0.050 mm^2 and 0.116 mm^2 and 0.147 mm^2 and 0.069 mm^2 and 0.084 mm^2 and 0.072 mm^2
  CNV area % of control: 105.6%
  inhibition (CNV area): −5.6
[1]; 1 nmol/eye
  CNV area, average: 0.077 mm^2
  CNV area, individual animal: 0.045 mm^2 and 0.092 mm^2 and 0.101 mm^2 (2×) and 0.088 mm^2 and 0.061 mm^2 and 0.109 mm^2 and 0.056 mm^2 and 0.040 mm^2
  CNV area % of control: 95.3%
  inhibition (CNV area): 4.7
[1]; 3 nmol/eye
  CNV area, average: 0.065 mm^2
  CNV area, individual animal: 0.070 mm^2 (2×) and 0.019 mm^2 and 0.081 mm^2 and 0.084 mm^2 and 0.062 mm^2 and 0.056 mm^2 and 0.086 mm^2 and 0.054 mm^2
  CNV area % of control: 80.0%
  inhibition (CNV area): 20.0
[1]; 10 nmol/eye
  CNV area, average: 0.045 mm^2
  CNV area, individual animal: 0.030 mm^2 and 0.003 mm^2 and 0.051 mm^2 and 0.058 mm^2 and 0.064 mm^2 and 0.035 mm^2 and 0.097 mm^2 and 0.039 mm^2 and 0.032 mm^2
  CNV area % of control: 56.2%
  inhibition (CNV area): 43.8
[1]; 30 nmol/eye
  CNV area, average: 0.036 mm^2
  CNV area, individual animal: 0.047 mm^2 and 0.031 mm^2 and 0.036 mm^2 and 0.048 mm^2 and 0.037 mm^2 and 0.027 mm^2 (2×) and 0.051 mm^2 and 0.019 mm^2
  CNV area % of control: 44.4%
  inhibition (CNV area): 55.6
VEGFR2 (KDR)
  IC50: 31 nM

## CNC1CCN(Cc2ccc(-c3cc4nccc(Oc5ccc(NC(=O)NC6CN(C(C)=O)C6)cc5F)c4s3)nc2)CC1 [Compound 45]
VEGFR2 (KDR)
  IC50: 70 nM

## CC(=O)N1CC(NC(=O)Nc2ccc(Oc3ccnc4cc(-c5ccc(CN6CCN(C(=O)CO)CC6)cn5)sc34)c(F)c2)C1 [Compound 47-A]
VEGFR2 (KDR)
  IC50: 68 nM

## CC(=O)N1CC(NC(=O)Nc2ccc(Oc3ccnc4cc(-c5ccc(CN6CCCC6=O)cn5)sc34)c(F)c2)C1 [Compound 112, 1-(1-Acetylazetidin-3-yl)-3-(3-fluoro-4-(2-(5-((2-oxopyrrolidin-1-yl)methyl)pyridin-2-yl)thieno[3,2-b]pyridin-7-yloxy)phenyl)urea]
VEGFR2 (KDR)
  IC50: 37 nM

## CC(=O)N1CC(NC(=O)Nc2ccc(Oc3ccnc4cc(-c5ccc(CN6CC(NC(=O)CO)C6)cn5)sc34)c(F)c2)C1 [Compound 48]
VEGFR2 (KDR)
  IC50: 62 nM

## COCCNCc1ccc(-c2cc3nccc(Oc4ccc(Nc5nc6cc(Cl)ccc6[nH]5)cc4F)c3s2)nc1 [Compound 63, 5-Chloro-N-(3-fluoro-4-(2-(5-((2-methoxyethylamino)methyl)pyridin-2-yl)thieno[3,2-b]pyridin-7-yloxy)phenyl)-1H-benzo[d]imidazol-2-amine]
VEGFR2 (KDR)
  IC50: 268 nM

## COCCN(Cc1ccc(-c2cc3nccc(Oc4ccc(NC(=O)NC5COC5)cc4F)c3s2)nc1)C(=O)OC(C)(C)C [Compound 104]
VEGFR2 (KDR)
  IC50: 197 nM

## CN1CCN(Cc2ccc(-c3cc4nccc(Oc5ccc(NC(=O)NC6CN(C(=O)Cc7ccccc7)C6)cc5F)c4s3)nc2)CC1 [Compound 53]
VEGFR2 (KDR)
  IC50: 58 nM

## CC(=O)N1CC(NC(=O)Nc2ccc(Oc3ccnc4cc(-c5ccc(CN6CC(NC(=O)OC(C)(C)C)C6)cn5)sc34)c(F)c2)C1 [Compound 46-A]
VEGFR2 (KDR)
  IC50: 137 nM
